Laboratory results from patent publication US20190247350A1, “COMPOSITION FOR IMPROVING DECREASED ABSORPTION IN DIGESTIVE TRACT, AND COMPOSITION FOR PROMOTING ABSORPTION IN DIGESTIVE TRACT” (AJINOMOTO CO., INC., priority 2016, published 2019).

Assays:
Assay type in all cases: in vivo, mouse
[1] = test system: small intestine (everted intestine sample); test: Glucose absorption capacity of everted intestine sample without exercise (Experimental Example 3); conditions: non-exercise, feed with cystine 2 wt % for 7 days, 10 mM glucose, 37° C., 90 min, Sed+Cys2 compared to Sed group
Description: 7-Week-old male CD2F1 mice (CHARLES RIVER LABORATORIES JAPAN, INC.) were divided into 2 groups (“Sed” and “Sed+Cys2”) (n=6/group), Sed group was made to ingest a standard purified feed (AIN-93G composition), and Sed+Cys2 group was made to ingest a standard purified feed (AIN-93G composition) added with cystine (2 wt %) by replacing casein, each for 7 days. Then, each group was fasted overnight, and the small intestine was collected, everted intestine samples were produced according to the method of KirK et al. (ADVANCES In Physiology Education 37 (4) 415-426 (2013), which is incorporated herein by reference in its entirety). […]
Ringer buffer containing 10 mM glucose was added to the serous membrane side and the villus side of the everted intestine sample of each group, and the sample was incubated under oxygen supply at 37° C. for 90 min. Thereafter, the everted intestine sample was taken out, and the glucose concentration of the Ringer buffer on the serous membrane side and the villus side was measured using a glucose measurement kit (“glucose CII Test Wako” (Wako Pure Chemical Industries, Ltd.)). The glucose absorption capacity of each group was calculated from the difference in the glucose concentration between the villus side and the serous membrane side. The difference in the glucose absorption capacity of each group was determined by a comparison t-test between two groups. […]

[2] = test system: sodium-dependent glucose transporter gene (SGLT1); test: Expression of sodium-dependent glucose transporter gene in small intestine after running exercise (real-time PCR); conditions: feed with cystine 2 wt % for 7 days, 4 hr running; compared to Ex group; tendency toward significance at P<0.1
Description: 7-Week-old male CD2F1 mice (CHARLES RIVER LABORATORIES JAPAN, INC.) were divided into 3 groups (“Sed”, “Ex” and “Ex+Cys2”) (n=12/group), Sed group and Ex group were made to ingest a standard purified feed (AIN-93G composition), and Ex+Cys2 group was made to ingest a standard purified feed (AIN-93G composition) added with cystine (2 wt %) by replacing casein, each for 7 days. Thereafter, each group was fasted overnight, and Ex group and Ex+Cys2 group were made to run in a running wheel for 4 hr (speed=10.5 m/min). Sed group was continuously fasted during the running exercise of Ex group and Ex+Cys2 group. Immediately after completion of running, the small intestine was collected, everted intestine samples were produced according to the method of KirK et al. (ADVANCES In Physiology Education 37 (4) 415-426 (2013), which is incorporated herein by reference in its entirety). As the everted intestine sample, a part of 8 cm below the point of 4 cm from the pyloric part was used.
Furthermore, using Rneasy Lipid Tissue Mini Kit (QIAGEN), total RNA was extracted from a part of the small intestine used for producing the everted intestine sample. QuantStudio 12K Flex Real-Time PCR System (Thermo Fisher Scientific) was used for the measurement of the expression of sodium-dependent glucose transporter gene (SGLT1). […]

[3] = test system: small intestine (everted intestine sample); test: Glucose absorption capacity of everted intestine sample after running exercise (Experimental Example 2); conditions: feed with cystine 2 wt % for 7 days, 4 hr running
Description: 7-Week-old male CD2F1 mice (CHARLES RIVER LABORATORIES JAPAN, INC.) were divided into 3 groups (“Sed”, “Ex” and “Ex+Cys2”) (n=12/group), Sed group and Ex group were made to ingest a standard purified feed (AIN-93G composition), and Ex+Cys2 group was made to ingest a standard purified feed (AIN-93G composition) added with cystine (2 wt %) by replacing casein, each for 7 days. Thereafter, each group was fasted overnight, and Ex group and Ex+Cys2 group were made to run in a running wheel for 4 hr (speed=10.5 m/min). Sed group was continuously fasted during the running exercise of Ex group and Ex+Cys2 group. […]
Ringer buffer containing 10 mM glucose was added to the serous membrane side and the villus side of the produced everted intestine sample of each group, and the sample was incubated under oxygen supply at 37° C. for 90 min. Thereafter, the everted intestine sample was taken out, and the glucose concentration of the Ringer buffer on the serous membrane side and the villus side was measured using a glucose measurement kit (“glucose CII Test Wako” (Wako Pure Chemical Industries, Ltd.)). The glucose absorption capacity of each group was calculated from the difference in the glucose concentration between the villus side and the serous membrane side. […]

[4] = test system: ABC protein G5 gene (Abcg5); test: Expression of ABC protein G5 gene in small intestine after running exercise (GeneChip array); conditions: feed with 2 wt % for 7 days, 4 hr running, small intestine 1 hr after running; compared to Ex group; P<0.05
Description: (§1) 7-Week-old male CD2F1 mice (CHARLES RIVER LABORATORIES JAPAN, INC.) were divided into 4 groups (“Sed”, “Ex”, “Ex+Gln” and “Ex+Cys2”) (n=6/group), Sed group and Ex group were made to ingest a standard purified feed (AIN-93G composition), Ex+Gln group was made to ingest a standard purified feed (AIN-93G composition) added with glutamine (2 wt %) by replacing casein, and Ex+Cys2 group was made to ingest a standard purified feed (AIN-93G composition) added with cystine (2 wt %) by replacing casein, each for 7 days. Thereafter, each group was fasted overnight, and Ex group, Ex+Gln group and Ex+Cys2 group were made to run in a running wheel for 4 hr (speed=10.5 m/min). Sed group was continuously fasted during the running exercise of Ex group, Ex+Gln group and Ex+Cys2 group. At 1 hr after completion of running, the small intestine was collected from the mice of each group, and total RNA was extracted using Rneasy Lipid Tissue Mini Kit (QIAGEN). GeneChip Mouse Genome 430 2.0 (3′IVT) array (Affymetrix) was used for the measurement of comprehensive gene expression. Difference in the gene expression level of each group was tested by Dunnett's test following one-way analysis of variance. […]

[5] = test system: peptide transporter gene (Slc15a1); test: Expression of peptide transporter gene in small intestine after running exercise (GeneChip array); conditions: feed with 2 wt % for 7 days, 4 hr running, small intestine 1 hr after running; compared to Ex group; P<0.01
Description: as §1

aquaporin gene (Aqa3) = test: Expression of aquaporin gene in small intestine after running exercise (GeneChip array); conditions: feed with 2 wt % for 7 days, 4 hr running, small intestine 1 hr after running; compared to Ex group; P<0.01
Description: as §1

[6] = test system: sodium-dependent multivitamin transporter gene (Slc5a6); test: Expression of sodium-dependent multivitamin transporter gene in small intestine after running exercise (GeneChip array); conditions: feed with 2 wt % for 7 days, 4 hr running, small intestine 1 hr after running; compared to Ex group; P<0.05
Description: as §1

biotinidase gene (Btd) = test: Expression of biotinidase gene in small intestine after running exercise (GeneChip array); conditions: feed with 2 wt % for 7 days, 4 hr running, small intestine 1 hr after running; compared to Ex group; P<0.01
Description: as §1

[7] = test system: scavenge receptor class B gene (Scarb1); test: Expression of scavenge receptor class B gene in small intestine after running exercise (GeneChip array); conditions: feed with 2 wt % for 7 days, 4 hr running, small intestine 1 hr after running; compared to Ex group; tendency toward significance at P<0.1
Description: as §1

[8] = test system: amino acid transporter gene (Slc7a7); test: Expression of amino acid transporter gene in small intestine after running exercise (GeneChip array); conditions: feed with 2 wt % for 7 days, 4 hr running, small intestine 1 hr after running; compared to Ex group; tendency toward significance at P=0.1
Description: as §1

[9] = test system: ABC protein G8 gene (Abcg8); test: Expression of ABC protein G8 gene in small intestine after running exercise (GeneChip array); conditions: feed with 2 wt % for 7 days, 4 hr running, small intestine 1 hr after running; compared to Ex group; P<0.05
Description: as §1

[10] = test system: folic acid transporter gene (Slc46a1); test: Expression of folic acid transporter gene in small intestine after running exercise (GeneChip array); conditions: feed with 2 wt % for 7 days, 4 hr running, small intestine 1 hr after running; compared to Ex group; P<0.05
Description: as §1

NC(CSSCC(N)C(=O)O)C(=O)O (stereo not drawn) [cystine, 3,3′-dithiobis(2-aminopropanoic acid)]
glucose absorption capacity (difference in glucose concentration between villus side and serous membrane side) [1]: improved | expression of SGLT1 (mRNA amount) [2]: tended to increase | glucose absorption capacity (difference in glucose concentration between villus side and serous membrane side) ([3]; 10 mM glucose, 37° C., 90 min, compared to Ex group): significantly (P<0.05) improved | glucose absorption capacity (difference in glucose concentration between villus side and serous membrane side) ([3]; Ex+Cys2 compared to Sed group (no exercise)): higher | expression level of ABC protein G5 gene (mRNA level) [4]: increased | expression level of peptide transporter gene (mRNA level) [5]: increased | expression level of aquaporin gene (mRNA level) (aquaporin gene (Aqa3)): increased | expression level of sodium-dependent multivitamin transporter gene (mRNA level) [6]: increased | expression level of biotinidase gene (mRNA level) (biotinidase gene (Btd)): increased

NC(=O)CCC(N)C(=O)O (stereo not drawn) [glutamine, 2-amino-4-carbamoylbutanoic acid]
expression level of scavenge receptor class B gene (mRNA level) [7]: increased | expression level of amino acid transporter gene (mRNA level) [8]: increased | expression level of ABC protein G8 gene (mRNA level) [9]: increased | expression level of aquaporin gene (mRNA level) (aquaporin gene (Aqa3)): increased | expression level of folic acid transporter gene (mRNA level) [10]: increased | expression level of biotinidase gene (mRNA level) (biotinidase gene (Btd)): increased
